pIC50, pKi: −log10 of the molar value.
Experiments:
Aβ production = test: Cellular Aβ IC50 determination (Aβ40 sandwich ELISA); format: cell-based; settings: Cricetulus griseus, Chinese hamster ovary cells over-expressing human APP695 with London and Swedish mutations, 24 h
Experimental: The potency of compounds against memapsin 2 activity was determined in a cellular assay of Aβ production. […] Chinese hamster ovary cells that over-express human APP695 with the London and Swedish mutations were seeded in multi-well plates at 10% confluency. Compounds were dissolved in DMSO to concentrations near 1 mM, and diluted into culture media to a final concentration near 4 μM (final 0.4% DMSO). Compounds were diluted serially and applied to cells in multi-well plates 48 h after seeding. Incubation was continued in 5% CO2 at 37 degrees C. for 24 h. Aliquots were removed and assayed for Aβ40 content using a sandwich ELISA (BioSource International). Amount of Aβ40 over the range of concentration of compounds, relative to control incubations, were fit to a 4-parameter IC50 model.

Cathepsin D = Cathepsin D (Homo sapiens, UniProt P07339); test: Inhibition of cathepsin D activity (substrate peptide hydrolysis, MALDI-TOF); format: biochemical; settings: pH 4.1, 37 degrees C., read-out: Cath D Ki
Sequence of Cathepsin D (P07339 65-412, species assumed): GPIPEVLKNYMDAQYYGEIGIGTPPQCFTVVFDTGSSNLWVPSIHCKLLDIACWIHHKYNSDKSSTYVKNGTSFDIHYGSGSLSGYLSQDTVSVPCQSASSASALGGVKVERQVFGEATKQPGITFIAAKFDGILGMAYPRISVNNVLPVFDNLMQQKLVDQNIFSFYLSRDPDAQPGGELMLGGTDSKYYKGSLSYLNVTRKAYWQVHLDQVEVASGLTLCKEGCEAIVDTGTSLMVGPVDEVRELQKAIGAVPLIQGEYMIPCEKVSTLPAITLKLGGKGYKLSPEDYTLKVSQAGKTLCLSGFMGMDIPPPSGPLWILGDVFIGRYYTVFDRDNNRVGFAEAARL

memapsin 2 = memapsin 2 (Homo sapiens, UniProt P56817); test: Inhibition of memapsin 2 beta-secretase activity toward fluorogenic substrate FS-2; format: biochemical; settings: pH 4, 37° C., 20 minutes pre-incubation, read-out: M2 Ki
Sequence of memapsin 2 (P56817 46-501): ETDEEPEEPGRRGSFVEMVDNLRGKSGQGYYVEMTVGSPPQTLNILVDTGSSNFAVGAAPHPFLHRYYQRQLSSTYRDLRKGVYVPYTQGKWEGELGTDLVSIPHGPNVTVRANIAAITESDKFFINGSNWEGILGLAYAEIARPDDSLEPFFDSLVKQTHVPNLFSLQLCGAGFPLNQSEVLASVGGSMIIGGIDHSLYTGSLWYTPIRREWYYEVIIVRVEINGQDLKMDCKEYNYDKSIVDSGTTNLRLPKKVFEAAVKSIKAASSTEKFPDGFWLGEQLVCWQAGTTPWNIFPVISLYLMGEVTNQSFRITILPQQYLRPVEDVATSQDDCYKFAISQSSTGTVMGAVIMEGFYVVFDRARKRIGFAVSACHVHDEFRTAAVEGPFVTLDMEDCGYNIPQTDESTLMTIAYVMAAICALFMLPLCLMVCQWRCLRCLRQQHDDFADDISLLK
Experimental: Potency of compounds were determined by measurement of their inhibition of memapsin 2 activity toward a fluorescent substrate. […] Briefly, assays were performed at pH 4, 37° C., by pre-incubation of memapsin 2 enzyme with compound for 20 minutes. Activity measure was initiated by addition of a fluorogenic substrate FS-2 (Bachem Americas, Torrance, Calif.). Fluorescent signal increase over time was measured as a rate of hydrolysis of the peptide substrate.

memapsin 1 = target: T1, memapsin 1 (Homo sapiens, UniProt Q9Y5Z0); test: Inhibition of memapsin 1 beta-secretase activity (substrate peptide hydrolysis, MALDI-TOF); format: biochemical; settings: pH 4.1, 37 degrees C., read-out: M1 Ki
T1 sequence (Q9Y5Z0 63-518): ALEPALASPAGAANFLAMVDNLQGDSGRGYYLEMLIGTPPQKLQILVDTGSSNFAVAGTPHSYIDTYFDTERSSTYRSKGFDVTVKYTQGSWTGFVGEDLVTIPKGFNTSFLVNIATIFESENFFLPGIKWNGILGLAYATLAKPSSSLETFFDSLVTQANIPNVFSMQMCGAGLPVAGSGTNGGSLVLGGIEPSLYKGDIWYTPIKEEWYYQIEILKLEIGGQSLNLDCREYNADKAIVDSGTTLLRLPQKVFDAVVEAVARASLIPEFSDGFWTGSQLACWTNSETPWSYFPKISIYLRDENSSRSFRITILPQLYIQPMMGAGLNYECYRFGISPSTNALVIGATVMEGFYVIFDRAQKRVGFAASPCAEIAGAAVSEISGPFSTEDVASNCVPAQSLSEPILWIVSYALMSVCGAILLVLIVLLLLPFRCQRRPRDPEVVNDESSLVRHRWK

Row | SMILES | pIC50 (Aβ production) | pKi (Cathepsin D) | pKi (memapsin 2) | pKi (memapsin 1)
1 | CC(C)CC(NC(=O)c1cc(C(=O)NC(C)c2ccccc2)cc(N(C)C(=O)OC2CCOC2)c1)C(O)CC(C)C(=O)NC(C(=O)NC(C)C)C(C)C (stereo not drawn) [tetrahydrofuran-3-yl 3-(5-hydroxy-8-(1-(isopropylamino)-3-methyl-1-oxobutan-2-ylamino)-2,7-dimethyl-8-oxooctan-4-ylcarbamoyl)-5-(1-phenylethylcarbamoyl)phenyl(methyl)carbamate] | < 4.70 | > 6.39 | 5.70 to 6.39 | > 6.39
2 | Cc1cc(C(=O)NC(CC(C)C)C(O)CC(C)C(=O)NC(C(=O)NCC(C)C)C(C)C)cc(C(=O)N(C)Cc2nc(C)cs2)c1 (stereo not drawn) [N1-(5-hydroxy-8-(1-(isobutylamino)-3-methyl-1-oxobutan-2-ylamino)-2,7-dimethyl-8-oxooctan-4-yl)-N3,5-dimethyl-N3-((4-methylthiazol-2-yl)methyl)isophthalamide] | > 5.30 | > 6.39 | > 6.39 | > 6.39
3 | CC(C)CNC(=O)C(NC(=O)C(C)CC(O)C(CC(C)C)NC(=O)c1cc(C(=O)N(C)Cc2ccccc2)cc(N(C)S(C)(=O)=O)c1)C(C)C (stereo not drawn) [N1-benzyl-N3-(5-hydroxy-8-(1-(isobutylamino)-3-methyl-1-oxobutan-2-ylamino)-2,7-dimethyl-8-oxooctan-4-yl)-N1-methyl-5-(N-methylmethylsulfonamido)isophthalamide] | 4.70 to 5.00 | > 6.39 | > 6.39 | > 6.39
4 | COC(=O)N(C)c1cc(C(=O)NC(C)c2ccccc2)cc(C(=O)NC(CC(C)C)C(O)CC(C)C(=O)NC(C(=O)NCC(C)C)C(C)C)c1 (stereo not drawn) [methyl 3-(5-hydroxy-8-(1-(isobutylamino)-3-methyl-1-oxobutan-2-ylamino)-2,7-dimethyl-8-oxooctan-4-ylcarbamoyl)-5-(1-phenylethylcarbamoyl)phenyl(methyl)carbamate] | – | > 6.39 | 5.70 to 6.39 | > 6.39

Now from value to molecule:

Row | pIC50 (Aβ production) | pKi (Cathepsin D) | pKi (memapsin 2) | pKi (memapsin 1) | SMILES
5 | 4.70 to 5.00 | > 6.39 | 5.70 to 6.39 | > 6.39 | CC(C)CNC(=O)C(NC(=O)C(C)CC(O)C(CC(C)C)NC(=O)c1cc(F)cc(C(=O)NC(C)c2ccccc2)c1)C(C)C (stereo not drawn) [5-fluoro-N1-(5-hydroxy-8-(1-(isobutylamino)-3-methyl-1-oxobutan-2-ylamino)-2,7-dimethyl-8-oxooctan-4-yl)-N3-(1-phenylethyl)isophthalamide]
6 | < 4.70 | > 6.39 | 5.70 to 6.39 | > 6.39 | CCN(Cc1ccncc1)C(=O)c1cc(C)cc(C(=O)NC(CC(C)C)C(O)CC(C)C(=O)NC(C(=O)NCC(C)C)C(C)C)c1 (stereo not drawn) [N1-ethyl-N3-(5-hydroxy-8-(1-(isobutylamino)-3-methyl-1-oxobutan-2-ylamino)-2,7-dimethyl-8-oxooctan-4-yl)-5-methyl-N1-(pyridin-4-ylmethyl)isophthalamide]
7 | > 5.30 | > 6.39 | > 6.39 | > 6.39 | CC(C)CC(NC(=O)c1cc(C(=O)NC(C)c2ccccc2)cc(N(C)S(C)(=O)=O)c1)C(O)CC(C)C(=O)NC(C(=O)NCc1ccccn1)C(C)C (stereo not drawn) [N1-(5-hydroxy-2,7-dimethyl-8-(3-methyl-1-oxo-1-(pyridin-2-ylmethylamino)butan-2-ylamino)-8-oxooctan-4-yl)-5-(N-methylmethylsulfonamido)-N3-(1-phenylethyl)isophthalamide]
8 | – | 5.30 to 5.70 | < 5.30 | < 5.30 | CC(C)CNC(=O)C(NC(=O)C(C)CC(O)C(CC(C)C)NC(=O)c1cccc(C(=O)N(C)Cc2nccn2C)c1)C(C)C (stereo not drawn) [N1-(5-hydroxy-8-(1-(isobutylamino)-3-methyl-1-oxobutan-2-ylamino)-2,7-dimethyl-8-oxooctan-4-yl)-N3-methyl-N3-((1-methyl-1H-imidazol-2-yl)methyl)isophthalamide]

Source: patent publication US20080207527A1, “Bicyclic Compounds Which Inhibit Beta-Secretase Activity and Methods of Use Thereof” (CoMentis, Inc., priority 2004, published 2008)
